Measured values published in US11155586B2, “Cystine knot scaffold platform” (Genentech, Inc., priority 2015, dated 2021).
Positions of bridges follow the written chain, without caps; N, C: chain ends. Residues, ends and D or L forms follow the SMILES beside them.

Key:
EGF and EGFR = target: T1, EGF and EGFR (Homo sapiens, UniProt P01133); assay: Competition ELISA, growth factor/receptor interaction; assay type: binding; details: FIG. 2B
T1 construct: purchased R &D Systems (Minneapolis, Minn.)
Method: (§1) Binding specificity of each peptide was established by competition ELISA. […] After blocking with block buffer (PBS with 0.5% BSA and 0.05% TWEEN®20) for 2 hours at room temperature, the receptor-Fc fusions or biotinylated receptors were serially diluted using assay buffer (PBS with 0.5% BSA and 0.05% TWEEN®20) and incubated for 1 hour at room temperature. […] Competition ELISA was conducted in an identical fashion as described above except after blocking, a mixture of serially diluted peptide containing a constant concentration of receptor-Fc fusion or biotinylated receptor (concentration of receptor was set to EC60) was added and incubated for 1 hour. All recombinant human proteins and antibodies were purchased from R &D Systems (Minneapolis, Minn.).

IGF and IGFR = target: T2, IGF and IGFR (Homo sapiens, UniProt P05019); assay: as above; assay type: binding; details: FIG. 2B
T2 construct: purchased R &D Systems (Minneapolis, Minn.)
T2 sequence (P05019 49-118 limits assumed): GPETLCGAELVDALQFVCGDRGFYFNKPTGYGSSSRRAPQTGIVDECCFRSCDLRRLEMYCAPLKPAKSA
Method: as §1

NGF and NGFR = target: T3, NGF and NGFR (Homo sapiens, UniProt P01138); assay: as above; assay type: binding; details: FIG. 2B
T3 construct: purchased R &D Systems (Minneapolis, Minn.)
T3 sequence (P01138 122-241): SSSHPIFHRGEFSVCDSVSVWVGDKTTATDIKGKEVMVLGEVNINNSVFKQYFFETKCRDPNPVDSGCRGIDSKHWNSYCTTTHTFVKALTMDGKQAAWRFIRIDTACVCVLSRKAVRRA
Method: as §1

PDGF and PDGFR = target: T4, PDGF and PDGFR (Homo sapiens, UniProt P01127); assay: as above; assay type: binding; details: FIG. 2B
T4 construct: purchased R &D Systems (Minneapolis, Minn.)
T4 sequence (P01127 82-190 limits assumed): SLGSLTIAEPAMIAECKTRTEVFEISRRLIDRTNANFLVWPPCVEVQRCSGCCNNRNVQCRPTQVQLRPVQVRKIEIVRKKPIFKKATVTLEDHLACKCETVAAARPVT
Method: as §1

PIGF-2 and Flt-1 = target: T5, PIGF-2 and Flt-1 (Homo sapiens, UniProt P49763); assay: as above; assay type: binding; details: FIG. 2A
T5 construct: purchased R &D Systems (Minneapolis, Minn.)
T5 sequence (P49763 19-170 isoform P49763-3 limits assumed): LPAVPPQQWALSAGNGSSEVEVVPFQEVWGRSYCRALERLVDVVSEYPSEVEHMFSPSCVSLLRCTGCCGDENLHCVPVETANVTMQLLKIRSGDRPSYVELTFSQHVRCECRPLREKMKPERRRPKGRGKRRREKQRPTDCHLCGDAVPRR
Method: as §1

VEGF-A and Flt-1 = target: T6, VEGF-A and Flt-1 (Homo sapiens, UniProt P15692); assay: as above; assay type: binding; details: FIGS. 2A and 2B
T6 construct: VEGF-A(8-109) and Flt-1; purchased R &D Systems (Minneapolis, Minn.)
T6 sequence (P15692 214-315): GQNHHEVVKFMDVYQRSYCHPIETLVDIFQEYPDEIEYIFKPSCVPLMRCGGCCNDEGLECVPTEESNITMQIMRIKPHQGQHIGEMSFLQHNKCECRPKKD
Method: as §1

VEGF-B and Flt-1 = target: T7, VEGF-B and Flt-1 (Homo sapiens, UniProt P49765); assay: as above; assay type: binding; details: FIG. 2A
T7 construct: purchased R &D Systems (Minneapolis, Minn.)
T7 sequence (P49765 22-136 limits assumed): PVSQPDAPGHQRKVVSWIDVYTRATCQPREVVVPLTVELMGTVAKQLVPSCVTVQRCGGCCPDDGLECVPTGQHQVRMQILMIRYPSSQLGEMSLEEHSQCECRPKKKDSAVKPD
Method: as §1

VEGF-C and Flt-4 = target: T8, VEGF-C and Flt-4 (Homo sapiens, UniProt P49767); assay: as above; assay type: binding; details: FIG. 2A
T8 construct: purchased R &D Systems (Minneapolis, Minn.)
T8 sequence (P49767 112-227 limits assumed): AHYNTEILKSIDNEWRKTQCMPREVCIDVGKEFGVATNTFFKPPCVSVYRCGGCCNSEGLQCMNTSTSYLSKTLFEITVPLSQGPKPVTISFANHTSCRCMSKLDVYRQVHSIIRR
Method: as §1

VEGF-D and Flt-4 = target: T9, VEGF-D and Flt-4 (Homo sapiens, UniProt O43915); assay: as above; assay type: binding; details: FIG. 2A
T9 construct: purchased R &D Systems (Minneapolis, Minn.)
T9 sequence (O43915 89-205 limits assumed): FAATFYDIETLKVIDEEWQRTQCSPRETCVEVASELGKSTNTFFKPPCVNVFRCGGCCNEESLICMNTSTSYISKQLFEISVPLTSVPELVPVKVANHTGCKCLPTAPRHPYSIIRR
Method: as §1

[1] = tested on: choroidal neovascularization in rat eyes; assay: VEGF-A driven model of laser-induced choroidal neovascularization; assay type: in vivo; details: intravitreal, 14-day period, vs control eyes, FIG. 12
Method: Next, VEGF-A binding variants VEGF_CKP9.54.90, VEGF_CKP9.63.12, and VEGF_CKP9.63.44 were assessed for their in vivo efficacy in a VEGF-A driven model of choroidal neovascularization. Laser-burnt spots were created in rat eyes and the formation of new vessels was monitored after a 14-day period in the presence and absence of peptide that was administered intravitreally at different intervals.

[2] = Oxidative stability (AAPH, LC-MS); assay type: physicochemical; details: 16 hours at 40° C.
Method: The oxidative stability of various CKP variants was assayed as follows: 5 μL of 11 mM AAPH (Calbiochem catalog no. 100110) in water was added to 50 uL of variant peptide sample (prepared as 1 mg/mL peptide in 20 mM histidine acetate pH 5.5) and the mix was incubated for 16 hours at 40° C. At the end of the incubation, the sample was quenched by addition of 27.5 uL of 40 mM methionine, followed by addition of 160 ul of 20 mM Histidine acetate, 100 mM sucrose at pH 5.5 to dilute the samples. The reactions were analyzed by LC-MS.

T1 sequence (P01133 971-1023 limits assumed): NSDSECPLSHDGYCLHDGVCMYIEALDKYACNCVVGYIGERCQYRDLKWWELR

Compound: CC[C@H](C)[C@@H]1NC(=O)[C@H](CC(N)=O)NC(=O)[C@@H](NC(=O)CN)CSSC[C@@H](C(=O)N[C@H](C(=O)N[C@H]2CSSC[C@@H](C(=O)NCC(=O)O)NC(=O)[C@H](CO)NC(=O)[C@H](CCC(N)=O)NC(=O)[C@H](Cc3ccc(O)cc3)NC(=O)[C@H](Cc3ccc(O)cc3)NC(=O)[C@H](CCC(N)=O)NC2=O)C(C)C)NC(=O)CNC(=O)[C@H](C)NC(=O)[C@H](CC(C)C)NC(=O)[C@@H]2CSSC[C@H](NC(=O)CNC(=O)[C@H](Cc3c[nH]c4ccccc34)NC(=O)[C@H](Cc3ccccc3)NC(=O)[C@@H]3CCCN3C(=O)[C@H](CC(C)C)NC(=O)[C@H](CCSC)NC1=O)C(=O)NCC(=O)N[C@@H](CCCNC(=N)N)C(=O)N[C@@H](CC(=O)O)C(=O)N[C@@H](Cc1ccccc1)C(=O)N[C@@H](CCC(=O)O)C(=O)N2 [VEGF_CKP9.54.90] (H-GCNIMLPFWGCGRDFECLAGCVCQYYQSCG-OH; disulfide 2-21, 11-17, 23-29; N-terminus and C-terminus assumed)
- disruption of the interaction between EGF and EGFR (EGF and EGFR): not disrupt
- disruption of the interaction between IGF and IGFR (IGF and IGFR): not disrupt
- disruption of the interaction between NGF and NGFR (NGF and NGFR): not disrupt
- disruption of the interaction between PDGF and PDGFR (PDGF and PDGFR): not disrupt
- disruption of the interaction between PIGF-2 and Flt-1 (PIGF-2 and Flt-1): not disrupt
- disruption of the interaction between VEGF-A and Flt-1 (VEGF-A and Flt-1): disrupts
- disruption of the interaction between VEGF-B and Flt-1 (VEGF-B and Flt-1): not disrupt
- disruption of the interaction between VEGF-C and Flt-4 (VEGF-C and Flt-4): not disrupt
- disruption of the interaction between VEGF-D and Flt-4 (VEGF-D and Flt-4): not disrupt
- inhibition of laser-induced choroidal neovascularization (neovascular area) [1]: effective inhibition
- oxidation at Met5 within loop 1 [2]: ~30%
